Measurements from patent publication US4820717A, “Antimicrobial aromatic derivatives substituted by an (omega amino) alkanol group and compositions containing them” (priority 1985, dated 1989).
In brackets after ≈: the same amount, converted by molar mass.

Assays:
[1] = system: Streptococcus faecalis CNCM 5855; experiment: Bactericidal activity (MBC), strain 4; type: cell-based; details: Enterococcus faecalis, CNCM5855, 20 min; strain 4, 20 minutes of contact; read-out: Minimum bactericidal concentration (MBC)
Description: (§1) The bactericidal activity of the products according to the invention has been analyzed on various strains by the method described hereafter:
(§2) A bacterial inoculum is placed in contact with different dilutions of the product to be tested, and this for a limited period of time. At the end of contact, an aliquot part of the mixture bacterial suspension/product is deposited on the surface of an agar culture medium containing an agent neutralizing the antibacterial activity of the product. The bactericidal concentration retained is the smallest concentration of the product from which bacteria stop growing. Said concentration is expressed in μg/ml.
(§3) The bacterial strains selected for the analysis are:
4--Streptococcus faecalis CNCM 5855;
(§4) The second strain is supported on a Worgel Fergusson medium, the other strains being supported on Tryptic Soy Agar-Difco (TSA) commercialized by Difco.
(§5) After a 24-hour culture period at 37° C., the microbial growth is collected by means of glass beads and of 10 ml of diluent containing 1 g of tryptone and 8.5 g of sodium chloride in 1000 ml of distilled water. The formed suspension is stirred and the percentage of light transmission at 620 nm is measured with a spectrophotometer:
(§6) The bacterial inoculum corresponds to a 1/20th dilution of this bacterial suspension.
(§7) Plates equipped with cupules receive different dilutions of the product to be analyzed. These dilutions are placed in contact with the different bacterial suspensions by means of a multiple-center inoculator. After 20 minutes of contact, aliquot parts are transferred by means of said inoculator on the surface of an agar medium (TSA) in Petri dishes, containing an activity-neutralizing agent, namely 20 g of lubrol W, 25 g of Tween 80 and 2.5 g of sodium thiosulfate in 1000 ml of TSA (Difco). The efficiency of the neutralizing agent is controlled for each product to be analyzed by depositing on the surface of the culture medium an aliquot part of the dilution of the product to be analyzed. After drying, the corresponding inoculum is deposited in the same place. An inoculum control is performed on an agar medium with or without neutralizing agent. Readings are taken after 48 hours of incubation at 37° C.

[2] = system: Candida albicans CNCM 1180; experiment: Antifungal activity (MFC), strain 1; type: cell-based; details: 20 min; yeast strain 1; read-out: Minimum fongicidal concentration (MFC)
Description: as §2, §7
(§8) The antifungal activity of the products according to the invention was also determined with the aforedescribed method.
(§9) The fungal strains selected for the analysis are:
1--Candida albicans CNCM 1180;
(§10) These strains are supported on a Sabouraud Dextrose agar medium commercialized by Difco; the technique used is the same as that used in the analysis of the antibacterial activity. After 48 hours of culture at 37° C., the microbial growth is collected with glass beads and 5 ml of diluent containing 1 g of tryptone and 8.5 g of sodium chloride in 1000 ml of distilled water; 5 ml of the diluent are then added. […] A 1/100th dilution of this suspension, observed between slides under a microscope 40-lens, should show 10 cells per frame, this corresponding to 1,000,000 yeasts per ml.

[3] = system: Torulopsis glabrata 072023; experiment: Antifungal activity (MFC), strain 4; type: cell-based; details: 20 min; yeast strain 4; read-out: Minimum fongicidal concentration (MFC)
Description: as §2, §7, §8, §9, §10

Candida parakruzei 3918 = experiment: Antifungal activity (MFC), strain 3; type: cell-based; details: 20 min; yeast strain 3; read-out: Minimum fongicidal concentration (MFC)
Description: as §2, §7, §8, §9
3--Candida parakruzei 3918;
as §10

[4] = system: Encapsulated klebsiella pneumoniae R030; experiment: Bactericidal activity (MBC), strain 2; type: cell-based; details: 20 min, strain 2, 20 minutes of contact, read-out: Minimum bactericidal concentration (MBC)
Description: as §1, §2, §3
2--Encapsulated klebsiella pneumoniae R030;
as §4, §5, §6, §7

[5] = system: Escherichia Coli CNCM 54125; experiment: Bactericidal activity (MBC), strain 1; type: cell-based; details: 20 min, strain 1, 20 minutes of contact, read-out: Minimum bactericidal concentration (MBC)
Description: as §1, §2, §3
1--Escherichia Coli CNCM 54125;
as §4, §5, §6, §7

[6] = system: Staphylococcus aureus CNCM 53154; experiment: Bactericidal activity (MBC), strain 5; type: cell-based; details: CNCM53154, 20 min, strain 5, 20 minutes of contact, read-out: Minimum bactericidal concentration (MBC)
Description: as §1, §2, §3
5--Staphylococcus aureus CNCM 53154.
as §4, §5, §6, §7

Candida tropicalis 3834 = experiment: Antifungal activity (MFC), strain 2; type: cell-based; details: 20 min; yeast strain 2; read-out: Minimum fongicidal concentration (MFC)
Description: as §2, §7, §8, §9
2--Candida tropicalis 3834;
as §10

[7] = system: Pseudomonas aeruginosa CNCM A22; experiment: Bactericidal activity (MBC), strain 3; type: cell-based; details: CNCMA22, 20 min, strain 3, 20 minutes of contact, read-out: Minimum bactericidal concentration (MBC)
Description: as §1, §2, §3
3--Pseudomonas aeruginosa CNCM A22;
as §4, §5, §6, §7

[8] = Acute toxicity by oral route in mice; details: mouse, in vivo, per os, male CD1 mice, 14 days observation
Description: Acute toxicity was tested by oral route in mice. This test was carried out with male mice of CD1 strain, obtained from the Charles Reever breeding farm. Each batch was composed of 5 animals of body weight varying between 24 and 30 g kept in the same cage. The animals were kept fasting for 6 hours before the treatment. For every test, the product, placed in suspension in a 10% solution of gum arabic, was administered by forcible feeding with an oesophageal probe. Food was then served to the animals 4 hours after the forcible feeding and the animals were kept under observation for a period of 14 days after the administration. During that period, the death rate is recorded for each batch of animals used in the experiment and, wherever possible, the LD50 is determined by the method of J. T. Litchfield and F. Wilcoxon, J. Pharmacol. 1949, 95, 99-113.
The results are given in mg of substance tested per kg of body weight. They are compiled in Table III below.

Row | Structure (SMILES) | MBC [1] | MFC [2] | MFC [3] | MFC (Candida parakruzei 3918) | MBC [4] | MBC [5] | MBC [6] | MFC (Candida tropicalis 3834) | MBC [7] | LD50 at 336 h [8]
1 | OCC(CCCN1CCCCC1)c1cccc2ccccc12 (stereo not drawn) [SR 43 087 A] | 2000 µg/mL (≈ 6720 µM) | 1000 µg/mL (≈ 3360 µM) | 5000 µg/mL (≈ 16800 µM) | 1000 µg/mL (≈ 3360 µM) | 1000 µg/mL (≈ 3360 µM) | 1500 µg/mL (≈ 5040 µM) | 800 µg/mL (≈ 2690 µM) | 1000 µg/mL (≈ 3360 µM) | 800 µg/mL (≈ 2690 µM) | 
2 | OCC(CCN1CCC(Cc2ccccc2)CC1)c1ccccc1 (stereo not drawn) [SR 43 705 A] | 500 µg/mL (≈ 1550 µM) |  |  |  | 500 µg/mL (≈ 1550 µM) | 500 µg/mL (≈ 1550 µM) | 500 µg/mL (≈ 1550 µM) |  | 500 µg/mL (≈ 1550 µM) | 
3 | CCC(CO)(CCN1CCCCC1)c1cccc2ccccc12.Cl (stereo not drawn) [SR 43 245 A, 2-ethyl-2-(1-naphthyl)-4-piperidino-butanol hydrochloride] | 1500 µg/mL |  |  |  | 1000 µg/mL | 1500 µg/mL | 1000 µg/mL |  | 800 µg/mL | 
4 | CN(C)CCCC(CO)c1cccc2ccccc12 (stereo not drawn) [SR 42 994 A] | 1000 µg/mL (≈ 3890 µM) | 500 µg/mL (≈ 1940 µM) | 5000 µg/mL (≈ 19400 µM) | 500 µg/mL (≈ 1940 µM) | 800 µg/mL (≈ 3110 µM) | 1000 µg/mL (≈ 3890 µM) | 1000 µg/mL (≈ 3890 µM) | 500 µg/mL (≈ 1940 µM) | 1000 µg/mL (≈ 3890 µM) | 750 to 1000 mg/kg
5 | CCN(CC)CCCCCCC(CO)c1cccc2ccccc12 (stereo not drawn) [SR 43 940 A] | 50 µg/mL (≈ 153 µM) |  |  |  | 50 µg/mL (≈ 153 µM) | 50 µg/mL (≈ 153 µM) | 50 µg/mL (≈ 153 µM) |  | 50 µg/mL (≈ 153 µM) | 
6 | OCC(CCN1CCCCCC1)c1c(Cl)cccc1Cl (stereo not drawn) [SR 43 703 A] | 800 µg/mL (≈ 2530 µM) |  |  |  | 600 µg/mL (≈ 1900 µM) | 600 µg/mL (≈ 1900 µM) | 1000 µg/mL (≈ 3160 µM) |  | 400 µg/mL (≈ 1260 µM) | 
7 | CC1CCN(CCC(CO)c2cccc3ccccc23)CC1 (stereo not drawn) [SR 43 382 A] | 5000 µg/mL (≈ 16800 µM) | 5000 µg/mL (≈ 16800 µM) | 10000 µg/mL (≈ 33600 µM) | 2000 µg/mL (≈ 6720 µM) | 2000 µg/mL (≈ 6720 µM) | 5000 µg/mL (≈ 16800 µM) | 2000 µg/mL (≈ 6720 µM) | 1000 µg/mL (≈ 3360 µM) | 2000 µg/mL (≈ 6720 µM) | 
8 | OCC(CCN1CCC(Cc2ccccc2)CC1)c1ccc(-c2ccccc2)cc1 (stereo not drawn) [SR 44 029 A] | 50 µg/mL (≈ 125 µM) | 50 µg/mL (≈ 125 µM) | 100 µg/mL (≈ 250 µM) | 50 µg/mL (≈ 125 µM) | 50 µg/mL (≈ 125 µM) | 10 µg/mL (≈ 25 µM) | 50 µg/mL (≈ 125 µM) | 50 µg/mL (≈ 125 µM) | 50 µg/mL (≈ 125 µM) | 
9 | CCN(CC)CCCCCCCCCC(CO)c1cccc2ccccc12 (stereo not drawn) [SR 43 826 A] | 50 µg/mL (≈ 135 µM) | 250 µg/mL (≈ 676 µM) | 250 µg/mL (≈ 676 µM) | 50 µg/mL (≈ 135 µM) | 50 µg/mL (≈ 135 µM) | 50 µg/mL (≈ 135 µM) | 50 µg/mL (≈ 135 µM) | 50 µg/mL (≈ 135 µM) | 50 µg/mL (≈ 135 µM) | 
10 | OCC(CCN1CCCCC1)c1ccc2ccccc2c1 (stereo not drawn) [SR 43 154 A] | 1500 µg/mL (≈ 5290 µM) |  |  |  | 1500 µg/mL (≈ 5290 µM) | 2000 µg/mL (≈ 7060 µM) | 1000 µg/mL (≈ 3530 µM) |  | 800 µg/mL (≈ 2820 µM) | 
11 | OCC(CCCCCN1CCC(Cc2ccccc2)CC1)c1cccc2ccccc12 (stereo not drawn) [SR 43 941 A] | 50 µg/mL (≈ 120 µM) | 100 µg/mL (≈ 241 µM) | 250 µg/mL (≈ 602 µM) | 250 µg/mL (≈ 602 µM) | 50 µg/mL (≈ 120 µM) | 50 µg/mL (≈ 120 µM) | 50 µg/mL (≈ 120 µM) | 100 µg/mL (≈ 241 µM) | 50 µg/mL (≈ 120 µM) | 
12 | CC1CCN(CCCC(CO)c2cccc3ccccc23)CC1 (stereo not drawn) [SR 43 290 A] | 4000 µg/mL (≈ 12800 µM) |  |  |  | 800 µg/mL (≈ 2570 µM) | 1500 µg/mL (≈ 4820 µM) | 800 µg/mL (≈ 2570 µM) |  | 800 µg/mL (≈ 2570 µM) | 
13 | OCC(CCN(C1CCCCC1)C1CCCCC1)c1cccc2ccccc12 (stereo not drawn) [SR 44 227 A] | 100 µg/mL (≈ 263 µM) |  |  |  | 300 µg/mL (≈ 790 µM) | 100 µg/mL (≈ 263 µM) | 500 µg/mL (≈ 1320 µM) |  | 500 µg/mL (≈ 1320 µM) | 
